# Reference: US6358885B1, “Substituted phenylheterocyclic herbicides” (Mississippi State University, priority 1992, dated 2002)
# Key:
# barnyardgrass = experiment: Test B preemergence/postemergence greenhouse plant response rating 0 to 10; type: in vivo, Echinochloa crus-galli; settings: for Plant response rating, Barnyardgrass: 0 to 10 scale
# Method in brief: (§1)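 Postemergence treatment of plants two to eighteen cm tall ran alongside preemergence treatment of planted seed, each using compound in a non-phytotoxic solvent.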
# blackgrass = experiment: as above; type: in vivo, Alopecurus myosuroides; settings: for Plant response rating, Blackgrass: 0 to 10 scale
# Method in brief: as §1
# crabgrass = experiment: as above; type: in vivo, Digitaria spp.; settings: for Plant response rating, Crabgrass: 0 to 10 scale
# Method in brief: as §1
# giant foxtail = experiment: as above; type: in vivo, Setaria faberii; settings: 0 to 10 scale
# Method in brief: as §1
# rape = experiment: as above; type: in vivo, Brassica napus; settings: 0 to 10 scale
# Method in brief: as §1
# purple nutsedge [1] = experiment: as above; type: in vivo, Cyperus rotundus; settings: 0 to 10 scale
# Method in brief: as §1
# corn = experiment: Test C preemergence/postemergence greenhouse plant response rating 0 to 100; type: in vivo, Zea mays; settings: POSTEMERGENCE; for Plant response rating, Corn: 0 to 100 scale
# Method in brief: (§2)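 Compounds in non-phytotoxic solvent applied preemergence to sandy loam one day after planting, postemergence at the 1–4 leaf stage, or to ~2.5 cm floodwater over silt loam.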
# morningglory = experiment: as above; type: in vivo, Ipomoea hederacea; settings: POSTEMERGENCE; for Plant response rating, Morningglory: 0 to 100 scale
# Method in brief: as §2
# wheat = experiment: as above; type: in vivo, Triticum aestivum; settings: POSTEMERGENCE; for Plant response rating, Wheat: 0 to 100 scale
# Method in brief: as §2
# wild buckwheat = experiment: as above; type: in vivo, Polygonum convolvulus; settings: POSTEMERGENCE; for Plant response rating, Wild buckwheat: 0 to 100 scale
# Method in brief: as §2
# wild oat = experiment: as above; type: in vivo, Avena fatua; settings: POSTEMERGENCE; for Plant response rating, Wild oat: 0 to 100 scale
# Method in brief: as §2
# rice = experiment: Test C flood test plant response rating 0 to 100; type: in vivo, Oryza sativa; settings: for Plant response rating Rice Japonica: flood test species listed under POSTEMERGENCE, 0 to 100 scale
# Method in brief: as §2
# dallisgrass = experiment: Test G preemergence/postemergence greenhouse plant response rating 0 to 100; type: in vivo, Paspalum dilatatum; settings: 0 to 100 scale
# From the text: (§3) Seeds, rhizomes, or plant parts of alfalfa (Medicago ativa), annual bluegrass (Poa annua), bermudagrass (Cynodon dactylon), broadleaf signalgrass (Brachiaria plantaginea), common purslane (Portulaca oleracea), common ragweed (Ambrosia elatior), […] (Paspalum dilatatum), goosegrass (Eleusine indica), guineagrass (Panicum maximum), […] exaltata), johnsongrass (Sorghum halepense), large crabgrass (Digitaria sanguinalis), peanut (Arachis hypoagaea), pitted morningglory (Ipomoea lacunosa), purple nutsedge (Cyperus rotundus), sandbur (Cenchrus echinatus), smooth crabgrass (Digitaria ischaemum) and yellow nutsedge (Cyperus esculentus) were planted into greenhouse pots containing greenhouse planting medium. Each pot contained only one plant species. The test compound was dissolved in a non-phytotoxic solvent and applied preemergence and/or postemergence to the plants. Preemergence applications were made within one day of planting the seeds or plant parts. Postemergence applications were applied when the plants were in the two to four leaf stage (three to twenty cm). Test chemicals were dissolved in a non-phytotoxic solvent and applied preemergence and postemergence to the plants. Untreated control plants and treated plants were placed in the greenhouse and visually evaluated for injury at 13 to 21 days after herbicide application. […] A dash (-) response indicates no test result.
# purple nutsedge [2] = experiment: as above; type: in vivo, Cyperus rotundus; settings: Rate 125 g/ha, 0 to 100 scale
# From the text: as §3
# [3] = POSTEMERGENCE section, flood test, Rate 4 g/ha
# [4] = Rate 16 g/ha, under POSTEMERGENCE head (flood test species)
compound,measurement,setting,value
CC(C)COc1cc(-c2nn3c(c2Cl)CCCC3)c(F)cc1Cl [Compound 30],"Plant response rating (0 to 10 scale), Barnyardgrass","barnyardgrass; POSTEMERGENCE, Rate 50 g/ha",6
same,"Plant response rating, Barnyardgrass","barnyardgrass; POSTEMERGENCE, Rate 200 g/ha",10
same,"Plant response rating, Barnyardgrass","barnyardgrass; PREEMERGENCE, Rate 50 g/ha",2
same,"Plant response rating, Barnyardgrass","barnyardgrass; Rate 200 g/ha, PREEMERGENCE",6
same,"Plant response rating (0 to 10 scale), Blackgrass","blackgrass; POSTEMERGENCE, Rate 50 g/ha",5
same,"Plant response rating, Blackgrass","blackgrass; POSTEMERGENCE, Rate 200 g/ha",5
same,"Plant response rating, Blackgrass","blackgrass; PREEMERGENCE, Rate 50 g/ha",0
same,"Plant response rating, Blackgrass","blackgrass; Rate 200 g/ha, PREEMERGENCE",0
same,"Plant response rating (0 to 10 scale), Crabgrass","crabgrass; POSTEMERGENCE, Rate 50 g/ha",3
same,"Plant response rating, Crabgrass","crabgrass; POSTEMERGENCE, Rate 200 g/ha",2
same,"Plant response rating, Crabgrass","crabgrass; PREEMERGENCE, Rate 50 g/ha",6
same,"Plant response rating, Crabgrass","crabgrass; Rate 200 g/ha, PREEMERGENCE",9
same,"Plant response rating, Giant foxtail","giant foxtail; POSTEMERGENCE, Rate 50 g/ha",4
same,"Plant response rating, Giant foxtail","giant foxtail; PREEMERGENCE, Rate 50 g/ha",7
same,"Plant response rating, Giant foxtail","giant foxtail; Rate 200 g/ha, POSTEMERGENCE",5
same,"Plant response rating, Giant foxtail","giant foxtail; Rate 200 g/ha, PREEMERGENCE",8
same,"Plant response rating, Rape","rape; POSTEMERGENCE, Rate 50 g/ha",5
same,"Plant response rating, Rape","rape; PREEMERGENCE, Rate 50 g/ha",0
same,"Plant response rating, Rape","rape; Rate 200 g/ha, POSTEMERGENCE",9
same,"Plant response rating, Rape","rape; Rate 200 g/ha, PREEMERGENCE",3
same,"Plant response rating, Nutsedge","purple nutsedge [1]; POSTEMERGENCE, Rate 50 g/ha",2
same,"Plant response rating, Nutsedge","purple nutsedge [1]; PREEMERGENCE, Rate 50 g/ha",0
same,"Plant response rating, Nutsedge","purple nutsedge [1]; Rate 200 g/ha, POSTEMERGENCE",5
same,"Plant response rating, Nutsedge","purple nutsedge [1]; Rate 200 g/ha, PREEMERGENCE",0
same,"Plant response rating, Corn",corn; 62 g/ha,30
same,"Plant response rating, Corn",corn; 250 g/ha,40
same,"Plant response rating (0 to 100), Corn",corn; Rate 4 g/ha,20
same,"Plant response rating (0 to 100), Corn",corn; Rate 16 g/ha,20
same,"Plant response rating, Morningglory",morningglory; 62 g/ha,80
same,"Plant response rating, Morningglory",morningglory; 250 g/ha,90
same,"Plant response rating (0 to 100), Morningglory",morningglory; Rate 4 g/ha,30
same,"Plant response rating (0 to 100), Morningglory",morningglory; Rate 16 g/ha,50
same,"Plant response rating, Wheat",wheat; 62 g/ha,60
same,"Plant response rating, Wheat",wheat; 250 g/ha,90
same,"Plant response rating (0 to 100), Wheat",wheat; Rate 4 g/ha,20
same,"Plant response rating (0 to 100), Wheat",wheat; Rate 16 g/ha,30
same,"Plant response rating, Wild buckwheat",wild buckwheat; 62 g/ha,80
same,"Plant response rating, Wild buckwheat",wild buckwheat; 250 g/ha,100
same,"Plant response rating (0 to 100), Wild buckwheat",wild buckwheat; Rate 4 g/ha,50
same,"Plant response rating (0 to 100), Wild buckwheat",wild buckwheat; Rate 16 g/ha,70
same,"Plant response rating, Wild oat",wild oat; 62 g/ha,60
same,"Plant response rating, Wild oat",wild oat; 250 g/ha,80
same,"Plant response rating (0 to 100), Wild oat",wild oat; Rate 4 g/ha,20
same,"Plant response rating (0 to 100), Wild oat",wild oat; Rate 16 g/ha,40
same,"Plant response rating (0 to 100), Rice Japonica",rice; [3],35
same,"Plant response rating (0 to 100), Rice Japonica",rice; [4],40
same,Plant response rating Rice Japonica,rice; 62 g/ha,50
same,Plant response rating Rice Japonica,rice; 250 g/ha,60
same,"Plant response rating, Dallisgrass","dallisgrass; POSTEMERGENCE, Rate 125 g/ha",0
same,"Plant response rating, Dallisgrass","dallisgrass; POSTEMERGENCE, Rate 250 g/ha",0
same,"Plant response rating, Dallisgrass","dallisgrass; PREEMERGENCE, Rate 125 g/ha",0
same,"Plant response rating, Dallisgrass","dallisgrass; PREEMERGENCE, Rate 250 g/ha",0
same,"Plant response rating, Purple Nutsedge",purple nutsedge [2]; POSTEMERGENCE,0
same,"Plant response rating, Purple Nutsedge",purple nutsedge [2]; PREEMERGENCE,0
CCCN1C(=O)COc2cc(F)c(-c3nn4c(c3Cl)CCCC4)cc21 [Compound 32],"Plant response rating, Barnyardgrass","barnyardgrass; POSTEMERGENCE, Rate 10 g/ha",3
same,"Plant response rating (0 to 10 scale), Barnyardgrass","barnyardgrass; POSTEMERGENCE, Rate 50 g/ha",5
same,"Plant response rating, Barnyardgrass","barnyardgrass; PREEMERGENCE, Rate 10 g/ha",0
same,"Plant response rating, Barnyardgrass","barnyardgrass; PREEMERGENCE, Rate 50 g/ha",1
same,"Plant response rating, Blackgrass","blackgrass; POSTEMERGENCE, Rate 10 g/ha",4
same,"Plant response rating (0 to 10 scale), Blackgrass","blackgrass; POSTEMERGENCE, Rate 50 g/ha",5
same,"Plant response rating, Blackgrass","blackgrass; PREEMERGENCE, Rate 10 g/ha",5
same,"Plant response rating, Blackgrass","blackgrass; PREEMERGENCE, Rate 50 g/ha",5
same,"Plant response rating, Crabgrass","crabgrass; POSTEMERGENCE, Rate 10 g/ha",3
same,"Plant response rating (0 to 10 scale), Crabgrass","crabgrass; POSTEMERGENCE, Rate 50 g/ha",5
same,"Plant response rating, Crabgrass","crabgrass; PREEMERGENCE, Rate 10 g/ha",2
same,"Plant response rating, Crabgrass","crabgrass; PREEMERGENCE, Rate 50 g/ha",3
same,"Plant response rating, Giant foxtail","giant foxtail; POSTEMERGENCE, Rate 10 g/ha",4
same,"Plant response rating, Giant foxtail","giant foxtail; POSTEMERGENCE, Rate 50 g/ha",5
same,"Plant response rating, Giant foxtail","giant foxtail; PREEMERGENCE, Rate 10 g/ha",2
same,"Plant response rating, Giant foxtail","giant foxtail; PREEMERGENCE, Rate 50 g/ha",4
same,"Plant response rating, Rape","rape; POSTEMERGENCE, Rate 10 g/ha",6
same,"Plant response rating, Rape","rape; POSTEMERGENCE, Rate 50 g/ha",10
same,"Plant response rating, Rape","rape; PREEMERGENCE, Rate 50 g/ha",2
same,"Plant response rating, Nutsedge","purple nutsedge [1]; POSTEMERGENCE, Rate 10 g/ha",2
same,"Plant response rating, Nutsedge","purple nutsedge [1]; POSTEMERGENCE, Rate 50 g/ha",4
same,"Plant response rating, Nutsedge","purple nutsedge [1]; PREEMERGENCE, Rate 50 g/ha",0
same,"Plant response rating, Corn",corn; 62 g/ha,50
same,"Plant response rating (0 to 100), Corn",corn; Rate 1 g/ha,20
same,"Plant response rating (0 to 100), Corn",corn; Rate 4 g/ha,30
same,"Plant response rating (0 to 100), Corn",corn; Rate 16 g/ha,40
same,"Plant response rating, Morningglory",morningglory; 62 g/ha,100
same,"Plant response rating (0 to 100), Morningglory",morningglory; Rate 1 g/ha,50
same,"Plant response rating (0 to 100), Morningglory",morningglory; Rate 4 g/ha,70
same,"Plant response rating (0 to 100), Morningglory",morningglory; Rate 16 g/ha,100
same,"Plant response rating, Wheat",wheat; 62 g/ha,50
same,"Plant response rating (0 to 100), Wheat",wheat; Rate 1 g/ha,10
same,"Plant response rating (0 to 100), Wheat",wheat; Rate 4 g/ha,30
same,"Plant response rating (0 to 100), Wheat",wheat; Rate 16 g/ha,30
same,"Plant response rating, Wild buckwheat",wild buckwheat; 62 g/ha,95
same,"Plant response rating (0 to 100), Wild buckwheat",wild buckwheat; Rate 1 g/ha,30
same,"Plant response rating (0 to 100), Wild buckwheat",wild buckwheat; Rate 4 g/ha,60
same,"Plant response rating (0 to 100), Wild buckwheat",wild buckwheat; Rate 16 g/ha,90
same,"Plant response rating, Wild oat",wild oat; 62 g/ha,50
same,"Plant response rating (0 to 100), Wild oat",wild oat; Rate 1 g/ha,20
same,"Plant response rating (0 to 100), Wild oat",wild oat; Rate 4 g/ha,30
same,"Plant response rating (0 to 100), Wild oat",wild oat; Rate 16 g/ha,30
same,"Plant response rating (0 to 100), Rice Japonica","rice; POSTEMERGENCE section, flood test, Rate 1 g/ha",0
same,"Plant response rating (0 to 100), Rice Japonica",rice; [3],20
same,"Plant response rating (0 to 100), Rice Japonica",rice; [4],30
same,Plant response rating Rice Japonica,rice; 62 g/ha,75
same,"Plant response rating, Dallisgrass","dallisgrass; POSTEMERGENCE, Rate 125 g/ha",0
same,"Plant response rating, Dallisgrass","dallisgrass; POSTEMERGENCE, Rate 250 g/ha",0
same,"Plant response rating, Dallisgrass","dallisgrass; PREEMERGENCE, Rate 125 g/ha",0
same,"Plant response rating, Dallisgrass","dallisgrass; PREEMERGENCE, Rate 250 g/ha",0
same,"Plant response rating, Purple Nutsedge",purple nutsedge [2]; POSTEMERGENCE,10
same,"Plant response rating, Purple Nutsedge",purple nutsedge [2]; PREEMERGENCE,0
